Results from patent US9603862B2, “Activation and activators of SIRT5” (CORNELL UNIVERSITY, priority 2009, dated 2017).
Like-named read-outs stand apart in the source and are kept apart here.

Biological target: T1, SIRT5 (Homo sapiens, UniProt Q9NXA8)
T1 sequence (Q9NXA8 37-310): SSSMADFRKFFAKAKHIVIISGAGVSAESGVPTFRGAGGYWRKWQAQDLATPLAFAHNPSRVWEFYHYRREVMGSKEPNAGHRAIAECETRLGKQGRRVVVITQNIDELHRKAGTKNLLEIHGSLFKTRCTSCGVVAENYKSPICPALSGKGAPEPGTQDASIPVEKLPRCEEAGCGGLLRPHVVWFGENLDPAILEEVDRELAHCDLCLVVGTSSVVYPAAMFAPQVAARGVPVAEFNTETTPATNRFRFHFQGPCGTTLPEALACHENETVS
Test: SIRT5 deacetylation activation assay (radiolabelled NAD+, DEAE-Sephadex column, turnover with vs without activator)
Assay type: biochemical
Method: The reactions were processed using DEAE columns. […]
Reactions containing NAD^+ including [2,8A^−3H]-NAD^+, peptide substrate, with or without activator in 100 mM phosphate buffer (pH 7.5) were initiated by addition of SIRT5 enzyme to a concentration of 10 μM. Reactions were incubated at 37° C. for 1 h and quenched by addition of trifluoroacetic acid to pH 2. After centrifugation to remove the precipitates, reactions were loaded onto columns containing pre-equilibrated DEAE-Sephadex (equilibrated with 5 mM ammonium acetate pH 7). The reaction mixture was then eluted with eight fractions of 20 mM ammonium acetate pH 7 and three fractions of 300 mM ammonium acetate pH 7. The radioactivity contained in the eluents was then quantified by scintillation counter. Radiolabelled NAD^+ eluted in the 20 mM washes, while products ADPR and AADPR eluted in the 300 mM fractions. Radioactivity in the remaining NAD^+ fractions and the radioactivity in the product fractions were then converted to a turnover rate (1/s) by adjustment for specific radioactivity and enzyme concentration. The turnovers from the reaction with or without the activators were compared to show the percentage of activation.
Test compounds were assayed against SIRT5 as described in Example 1.

[1] = FIG. 4, 500 μM JB12, 500 μM NAD+, 1 mM of activator compound
[2] = FIG. 4, 500 μM JB12, 500 μM NAD+, 1 mM of activator compound, read-out: Km of activator for activation of SIRT5-catalyzed deacetylation
[3] = FIG. 3, varying concentrations of activator, 500 μM NAD+, 500 μM JB12, DEAE columns
[4] = FIG. 3, varying concentrations of activator, 500 μM NAD+, 500 μM JB12, DEAE columns, read-out: Km of activator for activation of SIRT5-catalyzed deacetylation (Michaelis Menten curve fitting)

In the case of `O=C([O-])c1ccc[n+]([C@@H]2O[C@H](CO)[C@@H](O)[C@H]2O)c1` [NaR, nicotinic acid riboside], the “max activation of SIRT5 deacetylation” value [1] is reported as 160% and the Km [2] is reported as 821 µM.

With `COC(=O)c1ccc[n+]([C@@H]2O[C@H](CO)[C@@H](O)[C@H]2O)c1` [O-methyl NR, methyl nicotinate riboside] the “max activation of SIRT5 deacetylation” value [1] was 190% and the Km [2] was 93 µM.

Work on `NC(=O)c1ccc[n+]([C@@H]2O[C@H](CO)C(O)C2(F)F)c1` (stereo partly drawn) yielded an SIRT5 % activated (at 2.4 mM test compound) of 90% activated at 2.4 mM.

`CCOC(=O)c1ccc[n+]([C@@H]2O[C@H](CO)C(O)C2O)c1` (stereo partly drawn) showed an SIRT5 % activated (at 600 μM test compound) of 40% activated at 600 μM.

In the case of `NC(=O)c1ccc[n+](C2O[C@H](CO)[C@@H](O)C2(F)F)c1` (stereo partly drawn) [gem-diF-NR, 1-(2′-deoxy-2′,2′-difluoro-ribofuranosyl)-nicotinamide], the “max activation of SIRT5 deacetylation” value [3] is reported as 120% and the Km [4] is reported as 50 µM.

For `NC(=O)c1ccc[n+](C2O[C@H](CO)[C@@H](O)[C@H]2Cl)c1` (stereo partly drawn) [ribo-Cl-NR, 1-(2′-deoxy-2′-chloro-ribofuranosyl)-nicotinamide], the “max activation of SIRT5 deacetylation” value [3] was 125% and the Km [4] was 95 µM.

Work on `NC(=O)c1ccc[n+]([C@@H]2O[C@H](CO)C(O)C2O)c1` (stereo partly drawn) yielded an SIRT5 % activated (at 800 μM test compound) of 100% activated at 800 μM.

`COC(=O)c1ccc[n+]([C@@H]2O[C@H](CO)C(O)C2O)c1` (stereo partly drawn) showed an SIRT5 % activated (at 600 μM test compound) of 80% activated at 600 μM.

Molecule `O=C(O)c1ccc[n+]([C@@H]2O[C@H](CO)C(O)C2O)c1` (stereo partly drawn) has an SIRT5 % activated (at 800 μM test compound) of 60% activated at 800 μM.

Molecule `COB(OC)c1ccc[n+]([C@H]2CC(O)[C@@H](COP(=O)([O-])O)O2)c1` (stereo partly drawn) has an SIRT5 % activated (at 160 μM test compound) of 50% activated at 160 μM.

`NC(=O)c1ccc[n+]([C@@H]2O[C@H](CO)[C@@H](O)[C@H]2O)c1` [NR, nicotinamide riboside] gave an Emax (FIG. 3, varying concentrations of activator, 500 μM NAD+, 500 μM JB12, DEAE columns, read-out: max activation of SIRT5 deacetylation) of 200%.

Work on `NC(=O)c1ccc[n+]([C@@H]2O[C@H](CO)C(O)C2Cl)c1` (stereo partly drawn) yielded an SIRT5 % activated (at 1 mM test compound) of 75% activated at 1 mM.

`CCOC(=O)c1ccc[n+]([C@@H]2O[C@H](CO)[C@@H](O)[C@H]2O)c1` [O-ethyl NR, ethyl nicotinate riboside] was tested, and the “max activation of SIRT5 deacetylation” value [1] was 150% and the Km [2] was 323 µM.
